Results published in ChEMBL document CHEMBL1201862, “PubChem BioAssay data set” (2004).
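Protocol summary: plate cells (96-well), add compound at 5 concentrations, incubate 48 h, interpolate endpoints linearly. GI50 = concentration required for 50% inhibition of growth.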 Activity calls are given as the source filed them. No stated cut-off is given here; in the data, active = GI50 up to about 1.1 µM and inactive = higher.

Experiments:
Test in all cases: DTP human tumour cell line panel, 48 h
RXF 631 = system: RXF 631
DMS-273 = system: DMS-273
HOP-18 = system: HOP-18
M19-MEL = system: M19-MEL
DMS-114 = system: DMS-114
KM-20L2 = system: KM-20L2
XF498 = system: XF498
LXFL 529 = system: LXFL 529
SNB-78 = system: SNB-78

Measured: GI50

COc1cc2c(cc1OC)C1(c3ccccc3)ON=C(c3ccccc3)N1CS2 (configuration not stated)
inactive: RXF 631 > 100 µM | DMS-273 > 100 µM | HOP-18 > 100 µM | M19-MEL > 100 µM | DMS-114 > 100 µM | KM-20L2 > 100 µM | XF498 > 100 µM | LXFL 529 > 100 µM | SNB-78 > 100 µM

CCOC(=O)NC(=O)c1cn(CC(=O)NCC(=O)NCC(=O)NCCCN2CCN(CCCNC(=O)CNC(=O)CNC(=O)Cn3cc(C(=O)NC(=O)OCC)c(=O)[nH]c3=O)CC2)c(=O)[nH]c1=O
inactive: RXF 631 > 100 µM | DMS-273 > 100 µM | HOP-18 > 100 µM | M19-MEL > 100 µM | DMS-114 > 100 µM | KM-20L2 > 100 µM | XF498 > 100 µM | LXFL 529 > 100 µM | SNB-78 > 100 µM

CCCCCCCCCCCCC(CC)CCCCC(=O)O (configuration not stated)
inactive: RXF 631 > 100 µM | DMS-273 > 100 µM | HOP-18 > 100 µM | M19-MEL > 100 µM | DMS-114 > 100 µM | KM-20L2 > 100 µM | XF498 > 100 µM | LXFL 529 > 100 µM | SNB-78 > 100 µM
